According to patent US11840686B2, “Modulation of prekallikrein (PKK) expression” (Ionis Pharmaceuticals, Inc., priority 2013, dated 2023):
Several values for one entry are separate records, joined by “and”; a condition that tells them apart may be missing. Equal values may be shown once. Strand notation (5' to 3'): a small letter for the sugar, then the base; units joined by * are phosphorothioate-linked, units joined directly phosphodiester-linked; [ ] holds rarer units or linkages, { } end groups; capitals alone tell only the bases. e = 2'-O-(2-methoxyethyl) (MOE); [5mC] = 5-methylcytosine; d = 2'-deoxy (DNA)

Legend:
human PKK mRNA [1] = experiment: Antisense inhibition of human PKK mRNA in HepaRG cells, 5,000 nM (Example 2); assay type: cell-based
In short: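 Percent inhibition of PKK mRNA is reported relative to untreated cells, after adjustment for total RNA by RIBOGREEN. Gapmers of 16–20 nucleosides with 2′-MOE wings were delivered at 5,000 nM by electroporation into HepaRG cells and left for roughly 24 hours before RNA isolation.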

human PKK mRNA [2] = experiment: Dose-dependent antisense inhibition of human PKK in HepaRG cells, 0.19-5.00 uM (Example 5); assay type: cell-based
In short: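 HepaRG cells (20,000/well) were electroporated with antisense oligonucleotide at 0.19, 0.56, 1.67 and 5.00 μM and treated for about 16 hours. PKK mRNA was quantified by qRT-PCR with primer probe set RTS3454, normalised to RIBOGREEN total RNA, and IC50 was derived per oligonucleotide.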

[3] = system: basal vascular permeability; experiment: Dose-dependent effect on basal vascular permeability, Evans Blue OD600 (Example 14); assay type: in vivo, mouse; conditions: for OD600 nm of Evans Blue dye, Colon / OD600 nm of Evans Blue dye, Ears / OD600 nm of Evans Blue dye, Feet: basal, 3 weeks
Description: The effect of varying doses on ISIS 482584 on basal vascular permeability was evaluated.
Group 1 consisted of 8 mice and was treated with PBS administered subcutaneously twice a week for 3 weeks. No other treatment was administered to Group 1 which served as a control group to measure the basal levels of vascular permeability.
Group 2 consisted of 4 mice and was treated with PBS administered subcutaneously twice a week for 3 weeks. At the end of the treatment period, the mice were intraperitoneally administered 30 μg of HOE-140. Group 2 served as a positive control for inhibition of basal vascular permeability.
Groups 3, 4, 5, 6, 7, and 8 consisted of 8 mice each and were treated with 2.5 mg/kg, 5 mg/kg, 10 mg/kg, 20 mg/kg, 40 mg/kg, or 80 mg/kg (corresponding to 5 mg/kg, 10 mg/kg, 20 mg/kg, 40 mg/kg, 80 mg/kg, or 160 mg/kg per week), respectively of ISIS 482584 administered subcutaneously twice a week for 3 weeks. […] served as the experimental treatment groups for examining the effect of varying doses of ISIS 482584 on basal vascular permeability.
All the groups were then injected with 30 mg/kg of Evans Blue solution in the tail vein. The mice were sacrificed 30 min after the Evans Blue solution administration and colons, feet, and ears were harvested and examined for permeability defects. Blood samples were taken through cardiac puncture.
The harvested tissues from the feet, colon, and ears were placed in formamide solution overnight to leach out the Evans Blue dye. The formamide solution containing feet and ear tissue was heated to 55° C. and left overnight. Higher OD values are associated with higher levels of permeability.

[4] = HepaRG cells, electroporation, approximately 16 hours, Table 35
[5] = HepaRG cells, electroporation, approximately 16 hours, Table 36
[6] = HepaRG cells, electroporation, approximately 16 hours, Table 37
[7] = HepaRG cells, electroporation, approximately 16 hours, Table 38
[8] = HepaRG cells, electroporation, approximately 16 hours, Table 39
[9] = HepaRG cells, electroporation, approximately 16 hours, Table 40
[10] = Table 34, HepaRG, electroporation, ~16 h

## 531231 (eT*eA*eT*e[5mC]*eA*d[5mC]*dT*dG*dT*dA*d[5mC]*dT*dA*dG*dT*eT*eT*e[5mC]*e[5mC]*eT) [compound 531231]
Human PKK mRNA [1]; HepaRG cells, 5,000 nM antisense oligonucleotide, human PKK mRNA, Table 18
  % inhibition: 90%
Human PKK mRNA [1]; HepaRG cells, 5,000 nM antisense oligonucleotide, 5-10-5 gapmers, Table 16
  % inhibition: 93%
Human PKK mRNA [1]; HepaRG cells, 5,000 nM antisense oligonucleotide, 5-10-5 gapmers, Table 17
  % inhibition: 91%
Human PKK mRNA [1]; HepaRG cells, electroporation with 5,000 nM antisense oligonucleotide, approximately 24 hours, PKK mRNA by RT-PCR (RTS3454), relative to untreated control cells, Table 5 experiment
  % inhibition: 98%
Human PKK mRNA [1]; HepaRG cells, electroporation with 5,000 nM antisense oligonucleotide, approximately 24 hours, PKK mRNA by RT-PCR (RTS3454), relative to untreated control cells, Table 6 experiment
  % inhibition: 86%
Human PKK mRNA [1]; HepaRG cells, electroporation, 5,000 nM antisense oligonucleotide, approx. 24 hours, primer probe set RTS3454, relative to untreated control cells, Table 11
  % inhibition: 90%
Human PKK mRNA [1]; HepaRG cells, electroporation, 5,000 nM antisense oligonucleotide, approx. 24 hours, primer probe set RTS3454, relative to untreated control cells, Table 12
  % inhibition: 90%
Human PKK mRNA [1]; Table 7, HepaRG cells, electroporation with 5,000 nM antisense oligonucleotide, approx. 24 hours, PKK mRNA by RT-PCR (RTS3454), relative to untreated control cells
  % inhibition: 88%
Human PKK mRNA [1]; Table 8, HepaRG cells, electroporation with 5,000 nM antisense oligonucleotide, approx. 24 hours, PKK mRNA by RT-PCR (RTS3454), relative to untreated control cells
  % inhibition: 95%
Human PKK mRNA [1]; Table 9 experiment, HepaRG cells, 20,000 cells per well, electroporation with 5,000 nM antisense oligonucleotide, approx. 24 hours, PKK mRNA by RT-PCR (RTS3454), relative to untreated control cells
  % inhibition: 96%
Human PKK mRNA [1]; Table 10 experiment, HepaRG cells, 20,000 cells per well, electroporation with 5,000 nM antisense oligonucleotide, approx. 24 hours, PKK mRNA by RT-PCR (RTS3454), relative to untreated control cells
  % inhibition: 72%
Human PKK mRNA [1]; Table 13, human PKK mRNA in HepaRG cells, 5-10-5 gapmers
  % inhibition: 85%
Human PKK mRNA [1]; human PKK mRNA in HepaRG cells, 5-10-5 gapmers, Table 14
  % inhibition: 85%
Human PKK mRNA [1]; human PKK mRNA, HepaRG cells, 5-10-5 motif oligonucleotides targeting SEQ ID NO: 1 and 10
  % inhibition: 93%
Human PKK mRNA [2]; [4]
  percent inhibition of PKK at 0.19 μM: 25%
  percent inhibition of PKK at 0.56 μM: 34%
  percent inhibition of PKK at 1.67 μM: 84%
  percent inhibition of PKK at 5.00 μM: 92%
Human PKK mRNA [2]; [5]
  percent inhibition of PKK at 0.19 μM: 58%
  percent inhibition of PKK at 0.56 μM: 64%
  percent inhibition of PKK at 1.67 μM: 77%
  percent inhibition of PKK at 5.00 μM: 98%
Human PKK mRNA [2]; [6]
  percent inhibition of PKK at 0.19 μM: 34%
  percent inhibition of PKK at 0.56 μM: 47%
  percent inhibition of PKK at 1.67 μM: 72%
Human PKK mRNA [2]; [7]
  percent inhibition of PKK at 0.19 μM: 21%
  percent inhibition of PKK at 0.56 μM: 45%
  percent inhibition of PKK at 1.67 μM: 67%
  percent inhibition of PKK at 5.00 μM: 96%
Human PKK mRNA [2]; [8]
  percent inhibition of PKK at 0.19 μM: 21%
  percent inhibition of PKK at 0.56 μM: 39%
  percent inhibition of PKK at 1.67 μM: 90%
  percent inhibition of PKK at 5.00 μM: 97%
Human PKK mRNA [2]; [9]
  percent inhibition of PKK at 0.19 μM: 6%
  percent inhibition of PKK at 0.56 μM: 38%
  percent inhibition of PKK at 1.67 μM: 74%
  percent inhibition of PKK at 5.00 μM: 95%
Human PKK mRNA [2]; HepaRG cells, electroporation, approximately 16 hours, Table 41
  percent inhibition of PKK at 5.00 μM: 97%
Human PKK mRNA [2]; 0.19 0μM, HepaRG cells, electroporation, approximately 16 hours, Table 41
  percent inhibition of PKK at 0.19 0μM: 25%
Human PKK mRNA [2]; 0.56 0μM, HepaRG cells, electroporation, approximately 16 hours, Table 41
  percent inhibition of PKK at 0.56 0μM: 55%
Human PKK mRNA [2]; 1.67 1μM, HepaRG cells, electroporation, approximately 16 hours, Table 41
  percent inhibition of PKK at 1.67 1μM: 89%
Human PKK mRNA [2]; 4 point dose response, HepaRG cells, Table 35
  IC50: 700 nM
Human PKK mRNA [2]; 4 point dose response, HepaRG cells, Table 37
  IC50: 500 nM
Human PKK mRNA [2]; 4 point dose response, HepaRG cells, Table 38
  IC50: 700 nM
Human PKK mRNA [2]; 4 point dose response, HepaRG cells, Table 39
  IC50: 600 nM
Human PKK mRNA [2]; 4 point dose response, HepaRG cells, Table 40
  IC50: 800 nM
Human PKK mRNA [2]; 4 point dose response, HepaRG cells, Table 41
  IC50: 500 nM
Human PKK mRNA [2]; HepaRG cells, 0.19 μM antisense oligonucleotide
  percent inhibition of PKK mRNA, 0.19 μM: 7% and 6%
Human PKK mRNA [2]; HepaRG cells, 0.56 μM antisense oligonucleotide
  percent inhibition of PKK mRNA, 0.56 μM: 39% and 56%
Human PKK mRNA [2]; HepaRG cells, 1.67 μM antisense oligonucleotide
  percent inhibition of PKK mRNA, 1.67 μM: 56% and 68%
Human PKK mRNA [2]; HepaRG cells, 5.00 μM antisense oligonucleotide
  percent inhibition of PKK mRNA, 5.00 μM: 97%
Human PKK mRNA [2]; HepaRG cells, 0.19-5.00 μM
  IC50: 1000 nM and 800 nM
Human PKK mRNA [2]; [10]
  percent inhibition of PKK at 0.19 μM: 32%
  percent inhibition of PKK at 0.56 μM: 30%
  percent inhibition of PKK at 1.67 μM: 73%
  percent inhibition of PKK at 5.00 μM: 89%
Human PKK mRNA [2]; Table 34, PKK mRNA, HepaRG, electroporation, ~16 h
  IC50: 500 nM

## ISIS 482584: 5-10-5 MOE gapmer targeting murine PKK, GGCATATTGGTTTTTGGAAT; SEQ ID NO: 2244 (antisense eG*eG*e[5mC]*eA*eT*dA*dT*dT*dG*dG*dT*dT*dT*dT*dT*eG*eG*eA*eA*eT)
[3]; all doses (Groups 3-8), most of the tissues, vs PBS control
  basal vascular permeability: reduced basal vascular permeability
[3]; 5 mg/kg/week sc
  OD600 nm of Evans Blue dye, Colon: 0.32
  OD600 nm of Evans Blue dye, Ears: 0.009
  OD600 nm of Evans Blue dye, Feet: 0.11
[3]; 10 mg/kg/week sc
  OD600 nm of Evans Blue dye, Colon: 0.31
  OD600 nm of Evans Blue dye, Ears: 0.015
  OD600 nm of Evans Blue dye, Feet: 0.10
[3]; 20 mg/kg/week sc
  OD600 nm of Evans Blue dye, Colon: 0.26
  OD600 nm of Evans Blue dye, Ears: 0.009
  OD600 nm of Evans Blue dye, Feet: 0.11
[3]; 40 mg/kg/week sc
  OD600 nm of Evans Blue dye, Colon: 0.27
  OD600 nm of Evans Blue dye, Ears: 0.011
  OD600 nm of Evans Blue dye, Feet: 0.11
[3]; 80 mg/kg/week sc
  OD600 nm of Evans Blue dye, Colon: 0.24
  OD600 nm of Evans Blue dye, Ears: 0.014
  OD600 nm of Evans Blue dye, Feet: 0.09
[3]; 160 mg/kg/week sc
  OD600 nm of Evans Blue dye, Colon: 0.25
  OD600 nm of Evans Blue dye, Ears: 0.019
  OD600 nm of Evans Blue dye, Feet: 0.11
